From patent US9302999B2, “Substituted triazoles as herbicides” (E. I. DU PONT DE NEMOURS AND COMPANY, priority 2012, dated 2016)

Legend:
Assay type in all cases: in vivo
[1] = system: barnyardgrass (Echinochloa crus-galli); experiment: Test A pre-/postemergence: barnyardgrass; settings: for Barnyardgrass plant response rating: Postemergence; for Plant response rating, Barnyardgrass: Preemergence
Procedure, shortened: (§1)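 Visual 0–100 injury ratings (0 no effect, 100 complete control) taken about ten days after treatment, relative to untreated controls. Preemergence treatment was a directed soil spray; postemergence plants were 2–10 cm tall at one- to two-leaf stage. Soil: loam/sand blend.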

[2] = system: velvetleaf (Abutilon theophrasti); experiment: Test A pre-/postemergence: velvetleaf; settings: for Velvetleaf plant response rating: Postemergence; for Plant response rating, Velvetleaf: Preemergence
Procedure, shortened: as §1

[3] = system: morningglory (Ipomoea spp.); experiment: Test A pre-/postemergence: morningglory; settings: for Morningglory plant response rating: Postemergence; for Plant response rating, Morningglory: Preemergence
Procedure, shortened: as §1

[4] = system: wheat (Triticum aestivum); experiment: Test A pre-/postemergence: wheat; settings: for Wheat plant response rating: Postemergence; for Plant response rating, Wheat: Preemergence
Procedure, shortened: as §1

rice (Oryza sativa) = experiment: Test C flooded paddy test: rice; settings: scale 0 to 100 (0 no effect, 100 complete control)
Procedure, shortened: (§2)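 2-leaf stage plants; pots flooded 3 cm above soil; compound applied into paddy water, depth maintained. Greenhouse 13–15 d. Visual rating vs controls, 0–100 (0 = no effect, 100 = complete control); dash = no result.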

[5] = system: pigweed (Amaranthus retroflexus); experiment: Test A pre-/postemergence: pigweed; settings: for Pigweed plant response rating: Postemergence; for Plant response rating, Pigweed: Preemergence
Procedure, shortened: as §1

[6] = system: foxtail, giant (giant foxtail, Setaria faberii); experiment: Test A pre-/postemergence: foxtail, giant; settings: for Foxtail, Giant plant response rating: Postemergence; for Plant response rating, Foxtail, Giant: Preemergence
Procedure, shortened: as §1

corn (Zea mays) = experiment: Test A pre-/postemergence: corn; settings: for Corn plant response rating: Postemergence; for Plant response rating, Corn: Preemergence
Procedure, shortened: as §1

[7] = system: barnyardgrass (Echinochloa crus-galli); experiment: Test C flooded paddy test: barnyardgrass; settings: scale 0 to 100 (0 no effect, 100 complete control)
Procedure, shortened: as §2

[8] = system: ducksalad (Heteranthera limosa); experiment: Test C flooded paddy test: ducksalad; settings: scale 0 to 100 (0 no effect, 100 complete control)
Procedure, shortened: as §2

[9] = system: sedge, umbrella (small-flower umbrella sedge, Cyperus difformis); experiment: Test C flooded paddy test: sedge, umbrella; settings: scale 0 to 100 (0 no effect, 100 complete control)
Procedure, shortened: as §2

[10] = system: crabgrass, large (large crabgrass, Digitaria sanguinalis); experiment: Test A pre-/postemergence: crabgrass, large; settings: for Crabgrass, Large plant response rating: Postemergence; for Plant response rating, Crabgrass, Large: Preemergence
Procedure, shortened: as §1

[11] = 125 g ai/ha, 0 to 100 scale, 0 is no effect, 100 is complete control
[12] = 500 g ai/ha, visual rating on 0 to 100 scale (0 no effect, 100 complete control), approximately ten days
[13] = 125 g ai/ha, 0 to 100 scale (0 no effect, 100 complete control)
[14] = 500 g ai/ha, 0 to 100 scale, 0 is no effect, 100 is complete control
[15] = Flood (flooded paddy test), 62 g ai/ha, visual rating after 13 to 15 days
[16] = Flood (flooded paddy test), 125 g ai/ha, visual rating after 13 to 15 days
[17] = Flood (flooded paddy test), 250 g ai/ha, visual rating after 13 to 15 days

Cc1nn(-c2ccc(F)cc2)nc1Cc1ccnc(OCC(F)(F)F)c1 [Compound 33]
Barnyardgrass plant response rating [1, 11]: 0
Barnyardgrass plant response rating [1, 12]: 0
Plant response rating, Barnyardgrass [1, 13]: 0
Plant response rating, Barnyardgrass [1, 14]: 0
Velvetleaf plant response rating [2, 11]: 0
Velvetleaf plant response rating [2, 12]: 0
Plant response rating, Velvetleaf [2, 13]: 0
Plant response rating, Velvetleaf [2, 14]: 0
Morningglory plant response rating [3, 11]: 0
Morningglory plant response rating [3, 12]: 10
Plant response rating, Morningglory [3, 13]: 0
Plant response rating, Morningglory [3, 14]: 0
Wheat plant response rating [4, 11]: 0
Wheat plant response rating [4, 12]: 0
Plant response rating, Wheat [4, 13]: 0
Plant response rating, Wheat [4, 14]: 0
Plant response rating, Rice (rice (Oryza sativa); [15]): 0
Plant response rating, Rice (rice (Oryza sativa); [16]): 0
Plant response rating, Rice (rice (Oryza sativa); [17]): 0
Plant response rating, Rice (rice (Oryza sativa); Flood, 31 g ai/ha): 0
Pigweed plant response rating [5, 11]: 10
Pigweed plant response rating [5, 12]: 50
Plant response rating, Pigweed [5, 13]: 0
Plant response rating, Pigweed [5, 14]: 0
Foxtail, Giant plant response rating [6, 11]: 0
Foxtail, Giant plant response rating [6, 12]: 10
Plant response rating, Foxtail, Giant [6, 13]: 0
Plant response rating, Foxtail, Giant [6, 14]: 0
Corn plant response rating (corn (Zea mays); [11]): 0
Corn plant response rating (corn (Zea mays); [12]): 10
Plant response rating, Corn (corn (Zea mays); [13]): 0
Plant response rating, Corn (corn (Zea mays); [14]): 0
Plant response rating, Barnyardgrass [7, 15]: 0
Plant response rating, Barnyardgrass [7, 16]: 0
Plant response rating, Barnyardgrass [7, 17]: 0
Plant response rating, Barnyardgrass ([7]; Flood, 31 g ai/ha): 0
Plant response rating, Ducksalad [8, 15]: 0
Plant response rating, Ducksalad [8, 16]: 0
Plant response rating, Ducksalad [8, 17]: 0
Plant response rating, Ducksalad ([8]; Flood, 31 g ai/ha): 0
Plant response rating, Sedge, Umbrella [9, 15]: 0
Plant response rating, Sedge, Umbrella [9, 16]: 0
Plant response rating, Sedge, Umbrella [9, 17]: 0
Plant response rating, Sedge, Umbrella ([9]; Flood, 31 g ai/ha): 0
Crabgrass, Large plant response rating [10, 11]: 0
Crabgrass, Large plant response rating [10, 12]: 10
Plant response rating, Crabgrass, Large [10, 13]: 0
Plant response rating, Crabgrass, Large [10, 14]: 10

Cc1nn(-c2ccc(F)cc2)nc1Cn1cnc(C(F)(F)F)c1Cl [Compound 36]
Barnyardgrass plant response rating [1, 11]: 0
Barnyardgrass plant response rating [1, 12]: 0
Plant response rating, Barnyardgrass [1, 13]: 0
Plant response rating, Barnyardgrass [1, 14]: 0
Velvetleaf plant response rating [2, 11]: 0
Velvetleaf plant response rating [2, 12]: 10
Plant response rating, Velvetleaf [2, 13]: 0
Plant response rating, Velvetleaf [2, 14]: 0
Morningglory plant response rating [3, 11]: 0
Morningglory plant response rating [3, 12]: 0
Plant response rating, Morningglory [3, 13]: 0
Plant response rating, Morningglory [3, 14]: 0
Wheat plant response rating [4, 11]: 0
Wheat plant response rating [4, 12]: 0
Plant response rating, Wheat [4, 13]: 0
Plant response rating, Wheat [4, 14]: 0
Plant response rating, Rice (rice (Oryza sativa); [15]): 0
Plant response rating, Rice (rice (Oryza sativa); [16]): 0
Plant response rating, Rice (rice (Oryza sativa); [17]): 0
Plant response rating, Rice (rice (Oryza sativa); Flood, 31 g ai/ha): 0
Pigweed plant response rating [5, 11]: 0
Pigweed plant response rating [5, 12]: 20
Plant response rating, Pigweed [5, 13]: 0
Plant response rating, Pigweed [5, 14]: 0
Foxtail, Giant plant response rating [6, 11]: 0
Foxtail, Giant plant response rating [6, 12]: 0
Plant response rating, Foxtail, Giant [6, 13]: 0
Plant response rating, Foxtail, Giant [6, 14]: 0
Corn plant response rating (corn (Zea mays); [11]): 0
Corn plant response rating (corn (Zea mays); [12]): 0
Plant response rating, Corn (corn (Zea mays); [13]): 0
Plant response rating, Corn (corn (Zea mays); [14]): 0
Plant response rating, Barnyardgrass [7, 15]: 0
Plant response rating, Barnyardgrass [7, 16]: 0
Plant response rating, Barnyardgrass [7, 17]: 0
Plant response rating, Barnyardgrass ([7]; Flood, 31 g ai/ha): 0
Plant response rating, Ducksalad [8, 15]: 0
Plant response rating, Ducksalad [8, 16]: 0
Plant response rating, Ducksalad [8, 17]: 0
Plant response rating, Ducksalad ([8]; Flood, 31 g ai/ha): 0
Plant response rating, Sedge, Umbrella [9, 15]: 0
Plant response rating, Sedge, Umbrella [9, 16]: 0
Plant response rating, Sedge, Umbrella [9, 17]: 0
Plant response rating, Sedge, Umbrella ([9]; Flood, 31 g ai/ha): 0
Crabgrass, Large plant response rating [10, 11]: 0
Crabgrass, Large plant response rating [10, 12]: 0
Plant response rating, Crabgrass, Large [10, 13]: 0
Plant response rating, Crabgrass, Large [10, 14]: 10

Cc1nn(-c2cccc(C(F)(F)F)c2)nc1Oc1cc(C(F)(F)F)ncn1 [Compound 38]
Barnyardgrass plant response rating [1, 11]: 0
Barnyardgrass plant response rating [1, 12]: 0
Plant response rating, Barnyardgrass [1, 13]: 0
Plant response rating, Barnyardgrass [1, 14]: 0
Velvetleaf plant response rating [2, 11]: 0
Velvetleaf plant response rating [2, 12]: 60
Plant response rating, Velvetleaf [2, 13]: 0
Plant response rating, Velvetleaf [2, 14]: 0
Morningglory plant response rating [3, 11]: 0
Morningglory plant response rating [3, 12]: 0
Plant response rating, Morningglory [3, 13]: 0
Plant response rating, Morningglory [3, 14]: 0
Wheat plant response rating [4, 11]: 0
Wheat plant response rating [4, 12]: 0
Plant response rating, Wheat [4, 13]: 0
Plant response rating, Wheat [4, 14]: 0
Plant response rating, Rice (rice (Oryza sativa); [15]): 0
Plant response rating, Rice (rice (Oryza sativa); [17]): 0
Pigweed plant response rating [5, 11]: 0
Pigweed plant response rating [5, 12]: 30
Plant response rating, Pigweed [5, 13]: 0
Plant response rating, Pigweed [5, 14]: 10
Foxtail, Giant plant response rating [6, 11]: 0
Foxtail, Giant plant response rating [6, 12]: 0
Plant response rating, Foxtail, Giant [6, 13]: 0
Plant response rating, Foxtail, Giant [6, 14]: 20
Corn plant response rating (corn (Zea mays); [11]): 0
Corn plant response rating (corn (Zea mays); [12]): 0
Plant response rating, Corn (corn (Zea mays); [13]): 0
Plant response rating, Corn (corn (Zea mays); [14]): 0
Plant response rating, Barnyardgrass [7, 15]: 0
Plant response rating, Barnyardgrass [7, 17]: 0
Plant response rating, Ducksalad [8, 15]: 0
Plant response rating, Ducksalad [8, 17]: 0
Plant response rating, Sedge, Umbrella [9, 15]: 0
Plant response rating, Sedge, Umbrella [9, 17]: 0
Crabgrass, Large plant response rating [10, 11]: 20
Crabgrass, Large plant response rating [10, 12]: 50
Plant response rating, Crabgrass, Large [10, 13]: 50
Plant response rating, Crabgrass, Large [10, 14]: 60
